Test results taken from the supplement of paper PMC10307832.

Tests used:
Test in all cases: relative viability (nuclei count vs DMSO), 5 days (fraction); higher = more cells survive
[1] = compound: C[C@@]1(C(=O)Nc2ccc(F)nc2)CCCN1c1nc(Nc2cc(C3CC3)n[nH]2)c2cccn2n1 + O=C(CCCCCCC(=O)Nc1ccccc1)NO [Vorinostat] (partner 1 µM)
In short: (§1)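 Nuclei were stained with Hoechst during a one-step fixation (final 0.05% Triton X-100, 1% formaldehyde, 1 ug/ml Hoechst) carried out 5 days after dosing, then counted on 4× images. The cells, lung cancer lines in 1536-well plates, had been dosed by pin tool the day after seeding with one drug alone or a fixed anchor-drug dose plus five library-drug doses (not always all listed) in √10 steps. Relative viability is the nuclei count in treated wells divided by that in vehicle wells, and each value is the median of duplicate plates.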

[2] = compound: C[C@@]1(C(=O)Nc2ccc(F)nc2)CCCN1c1nc(Nc2cc(C3CC3)n[nH]2)c2cccn2n1 + CC(=O)Nc1cccc(-n2c(=O)n(C3CC3)c(=O)c3c(Nc4ccc(I)cc4F)n(C)c(=O)c(C)c32)c1 [Trametinib] (partner 0.02 µM)
In short: as §1

[3] = compound: C[C@@]1(C(=O)Nc2ccc(F)nc2)CCCN1c1nc(Nc2cc(C3CC3)n[nH]2)c2cccn2n1 + CS(=O)(=O)N1CCN(Cc2cc3nc(-c4cccc5[nH]ncc45)nc(N4CCOCC4)c3s2)CC1 [Pictilisib] (partner 1 µM)
In short: as §1

Motesanib + Phenformin = compound: CC1(C)CNc2cc(NC(=O)c3cccnc3NCc3ccncc3)ccc21 [Motesanib] + N=C(N)NC(=N)NCCc1ccccc1 [Phenformin] (partner 250 µM)
In short: as §1

Cell Line	relative viability ([1]; first compound 0.04 µM)	relative viability ([1]; first compound 0.1265 µM)	relative viability ([1]; first compound 0.4 µM)	relative viability ([1]; first compound 1.265 µM)	relative viability ([2]; first compound 0.04 µM)	relative viability ([2]; first compound 0.1265 µM)	relative viability ([2]; first compound 0.4 µM)	relative viability ([2]; first compound 1.265 µM)	relative viability ([3]; first compound 0.04 µM)	relative viability ([3]; first compound 0.1265 µM)	relative viability ([3]; first compound 0.4 µM)	relative viability ([3]; first compound 1.265 µM)	relative viability (Motesanib + Phenformin; first compound 0.01 µM)	relative viability (Motesanib + Phenformin; first compound 0.03162 µM)	relative viability (Motesanib + Phenformin; first compound 0.1 µM)	relative viability (Motesanib + Phenformin; first compound 0.3162 µM)	relative viability (Motesanib + Phenformin; first compound 1 µM)
NCI-H596	0.571	0.449	0.528	0.466	0.912	0.72	0.654	0.748	0.378	0.349	0.335	0.316	0.779	0.861	0.67	0.724	0.85
NCI-H647	0.711	0.574	0.489	0.289	0.465	0.419	0.383	0.397	0.443	0.24	0.334	0.348	0.491	0.554	0.462	0.657	0.524
NCI-H650	0.42	0.195	0.334	0.257	0.867	0.572	0.743	0.611	0.916	0.651	0.689	0.722	0.457	–	0.492	0.544	0.434
NCI-H661	0.781	0.774	0.815	0.559	0.605	0.55	0.591	0.555	0.432	0.355	0.408	–	0.292	0.268	0.28	0.292	0.268
NCI-H727	1.3	0.774	0.774	0.474	0.312	0.283	0.267	0.221	0.328	0.179	0.306	0.155	0.408	0.613	0.664	0.587	0.487
NCI-H838	0.7	0.627	0.535	0.266	0.496	0.46	0.346	0.36	0.514	0.379	0.263	0.365	0.547	0.667	0.514	0.745	0.656
NCI-H1355	0.578	0.499	0.403	0.505	0.36	0.302	0.289	0.346	0.428	0.462	0.332	0.439	0.436	0.416	0.49	0.482	0.475
NCI-H1395	0.803	0.415	0.629	0.528	1.02	0.863	0.901	0.989	0.664	0.436	0.761	0.788	0.437	0.431	0.406	0.543	0.433
NCI-H1437	0.898	0.744	0.527	0.433	0.404	0.3	0.277	0.277	0.271	0.295	0.248	0.363	0.287	0.282	0.282	0.316	0.305
NCI-H1650	0.568	0.445	0.494	0.311	0.672	0.5	0.51	0.572	0.561	0.489	0.533	0.403	0.489	0.304	0.394	0.417	0.403
NCI-H1651	0.547	0.499	0.517	0.448	0.723	0.798	0.712	0.757	0.484	0.447	0.39	0.538	0.295	0.367	0.342	0.352	0.339
NCI-H1666	0.965	0.729	0.77	0.82	0.826	0.688	0.697	0.755	0.364	0.378	0.447	0.38	0.558	0.552	0.591	0.607	0.612
NCI-H1734	0.71	0.58	0.486	0.421	0.527	0.512	0.403	0.563	0.381	0.301	0.321	0.296	0.36	0.368	–	0.36	0.468
NCI-H1755	0.796	0.609	0.653	0.726	0.661	0.692	0.734	0.744	0.481	0.241	0.307	0.381	0.618	0.631	0.665	0.747	0.619
NCI-H1793	0.79	0.613	0.507	0.202	0.4	0.355	0.392	0.459	0.338	0.284	0.323	0.293	0.295	0.313	0.307	0.39	0.362
NCI-H1915	0.54	0.519	0.475	0.492	0.316	0.261	0.272	0.338	0.948	1.04	0.894	0.863	0.395	0.362	0.249	0.375	0.357
NCI-H1944	0.548	0.448	0.482	0.545	0.352	0.363	0.284	0.384	0.29	0.323	0.283	0.316	0.184	0.2	0.221	0.246	0.254
NCI-H1975	0.639	0.62	0.576	0.316	0.272	0.273	0.313	0.234	0.226	0.211	0.188	0.197	0.407	0.391	0.393	0.409	0.441

Cell Line	relative viability ([1]; first compound 0.04 µM)	relative viability ([1]; first compound 0.1265 µM)	relative viability ([1]; first compound 0.4 µM)	relative viability ([1]; first compound 1.265 µM)	relative viability ([2]; first compound 0.04 µM)	relative viability ([2]; first compound 0.1265 µM)	relative viability ([2]; first compound 0.4 µM)	relative viability ([2]; first compound 1.265 µM)	relative viability ([3]; first compound 0.04 µM)	relative viability ([3]; first compound 0.1265 µM)	relative viability ([3]; first compound 0.4 µM)	relative viability ([3]; first compound 1.265 µM)	relative viability (Motesanib + Phenformin; first compound 0.01 µM)	relative viability (Motesanib + Phenformin; first compound 0.03162 µM)	relative viability (Motesanib + Phenformin; first compound 0.1 µM)	relative viability (Motesanib + Phenformin; first compound 0.3162 µM)	relative viability (Motesanib + Phenformin; first compound 1 µM)
NCI-H1993	0.663	0.413	0.44	0.422	0.468	0.42	0.534	0.46	0.906	–	0.803	0.812	0.489	0.501	0.516	0.564	0.451
NCI-H2009	0.789	0.768	0.747	0.598	0.297	0.314	0.235	0.243	0.824	0.765	0.653	0.717	0.491	0.36	0.544	0.481	0.487
NCI-H2023	0.75	0.201	0.419	0.127	0.454	0.387	0.297	0.277	0.197	0.129	0.118	0.146	0.387	0.297	0.443	0.421	0.463
NCI-H2085	0.779	0.728	0.69	0.569	0.929	0.471	0.58	0.636	0.487	0.46	0.469	0.495	0.745	0.759	0.756	0.781	0.759
NCI-H2087	0.635	0.774	0.473	0.357	0.158	0.161	0.15	0.138	0.896	0.783	0.792	0.7	0.475	0.411	0.575	0.489	0.484
NCI-H2126	0.595	0.352	0.315	0.425	0.447	0.346	0.336	0.415	0.456	0.392	0.394	0.436	0.525	0.557	0.511	0.567	0.579
NCI-H2170	0.825	0.729	0.819	0.743	0.951	0.966	0.894	0.992	0.243	0.212	0.188	0.243	0.469	0.359	0.447	0.489	0.409
NCI-H2228	0.474	0.444	0.513	0.298	0.485	0.287	0.276	0.302	0.216	0.175	0.198	0.246	0.26	0.329	0.257	0.394	0.208
NCI-H2347	0.581	0.487	0.415	0.543	0.251	0.289	0.256	0.248	0.595	0.6	0.516	0.776	0.419	0.45	0.372	0.502	0.466
NCI-H2405	0.959	0.889	0.634	0.44	0.461	0.382	0.353	0.381	0.391	0.357	0.37	0.296	–	0.265	0.404	0.402	0.422
NCI-H3122	0.91	0.972	0.916	0.879	0.181	0.202	0.181	0.2	0.479	0.374	0.479	0.393	0.351	0.338	0.409	0.427	0.375
PC-3 [JPC-3]	0.717	0.718	0.755	0.525	0.628	0.441	0.513	0.603	0.784	0.595	0.708	0.644	0.482	0.478	0.458	0.512	0.507
PC-14	0.792	0.102	0.45	0.204	0.765	0.649	0.696	0.687	0.505	0.0522	0.37	0.485	0.471	0.53	0.663	0.604	0.586
RERF-LC-KJ	0.747	0.605	0.621	0.467	0.84	0.665	0.639	0.685	0.477	0.44	0.228	0.494	0.462	0.389	0.407	0.373	0.467
SK-LU-1	0.804	0.761	0.55	0.367	0.45	0.413	0.421	0.469	0.546	0.453	0.428	0.502	0.489	0.5	0.539	0.569	0.591
SK-MES-1	1.21	1.05	0.859	0.354	0.604	0.483	0.522	0.633	0.335	0.268	0.286	0.306	0.624	0.588	0.714	0.703	0.658
SW 1573	0.667	0.585	0.482	0.263	0.496	0.389	0.368	0.412	0.438	0.251	0.377	0.455	0.468	0.343	0.388	0.36	0.421
UMC-11	0.398	0.432	0.359	0.258	0.703	0.671	0.651	0.648	0.776	0.868	0.805	0.723	0.29	0.33	0.324	0.33	0.345
